# Experimental data reported in US20230345990A1, “PROCESS FOR PRODUCTION OF CONCENTRATES OF CHELATED MINERALS WITH SOYBEAN AMINO ACIDS AND/OR SOYBEAM PROTEIN, AND RELATED PRODUCT” (Yessinergy Holding S.A., priority 2021, published 2023).
# Assays:
# Type in all cases: in vivo, broilers (Cobb 500 male chicks)
# [1] = Zn balance in broilers (Zn in excreta, retained Zn)
# Protocol: (§1) An experiment was developed with the purpose of investigating the effect of providing six different sources of Zn, at two levels of supplementation, in diets based on corn, soybean bran and phytase, with respect to performance and balance of Zn in broilers.
# (§2) Feed and water were freely provided throughout an experimental period from 1 to 42 days. The shed room temperature was maintained using 250 Watt infrared lamps and curtains on the sides of the shed. Light was provided for 22 hours/day in a scheme of 12 hours of natural light and 10 hours of artificial light. 2,400 lineage Cobb 500 male chicks were used, distributed in a randomized block design housed on the floor in a shed divided into 120 boxes of 1.0×2.0 meters (3,3×6.6 ft), with reused wood shavings bed, for the purpose of increasing the health challenge of birds.
# (§3) The birds were randomly distributed in a 6×2 factorial arrangement with six different sources of Zn and two levels of Zn (40 and 80 mg/kg), totaling 12 treatments with 10 repetitions and 20 animals per box (this being considered one experimental unit).
# At 33 days of age, excreta were collected for 24 hours by placing a plastic canvas on the floor of each box to determine Zn content (mg/kg of dry matter in excreta), retained Zn (consumed mg minus excreted mg), and Zn balance (retained Zn/consumed Zn x 100).
# [2] = Broiler performance (feed intake, weight gain, feed conversion) with different Zn sources
# Description: as §1
# The experimental feeds used for the initial phase (1 to 21 days) and for growth (21 to 42 days) were formulated based on corn, soybean bran and phytase, following the recommendations proposed by Rostagno et al. (2017) for each phase.
# as §2, with “birds. […]” for “birds.”
# The parameters of performance evaluated were feed intake (FI, kg/bird), weight gain (WG, kg/bird), feed conversion (FC, kg/kg).
# [3] = Foot Pad Lesions (FPL) score in broilers at 42 days
# Protocol: as §1, §2, §3
# At 42 days of age, during individual weighing of the birds, the quality of the foot pad was determined, using the Foot Pad Lesions (FPL) score according to Berg (1998) and Van Ham et al. (2019), wherein both foot pads of all animals in the experiment were evaluated. Score 0 was given for cushions without any injuries, 1 for discolored cushions but without deep injuries, and score 2 for cushions with deep injuries (ulcers, blisters, etc.). As this is a subjective fact, only one person was responsible for the assessment of the foot pad score. The Injury Score for each experimental unit was calculated according to the following equation, with FPL index varying from 0 to 200 (all birds having score 2).
# [4] = level of zinc 40 mg/kg, 1 to 42 days
# [5] = level of zinc 80 mg/kg, 1 to 42 days
compound,measurement,setting,value
"O=S(=O)([O-])[O-].[Zn+2] [SF, ZnSO4]",Percentage of Retained Zinc,[1]; level of zinc 40 mg/kg,19.52%
same,Zinc Excretion,"[1]; level of zinc 40 mg/kg, excreta collected 24 h",10.26 mg/bird
same,Percentage of Retained Zinc,[1]; level of zinc 80 mg/kg,47.23%
same,Zinc Excretion,"[1]; level of zinc 80 mg/kg, excreta collected 24 h",9.17 mg/bird
same,Percentage of Retained Zinc,[1]; mean of 40 and 80 mg/kg,33.4%
same,Zinc Excretion,[1]; mean of 40 and 80 mg/kg,9.7 mg/bird
same,Feed Conversion,[2]; level of zinc 40 mg/kg,1.52 kg consumption/kg
same,Feed Consumption,[2]; [4],4.81 kg/bird
same,Weight Gain,[2]; [4],3.17 kg/bird
same,Feed Conversion,[2]; level of zinc 80 mg/kg,1.51 kg consumption/kg
same,Feed Consumption,[2]; [5],4.73 kg/bird
same,Weight Gain,[2]; [5],3.14 kg/bird
same,Feed Conversion,"[2]; level of zinc 100 mg/kg, trend based on results from 40 to 80 ppm of Zn",1.52 kg consumption/kg
same,Feed Conversion,[2]; mean,1.51 ab kg consumption/kg
same,Feed Consumption,[2]; mean of 40 and 80 mg/kg,4.77 kg/bird
same,Weight Gain,[2]; mean of 40 and 80 mg/kg,3.16 kg/bird
same,Foot pad lesions % (42 days),[3]; level of zinc 40 mg/kg,18.98%
same,Foot pad lesions % (42 days),[3]; level of zinc 80 mg/kg,25.09%
same,Foot pad lesions % (42 days),[3]; mean of 40 and 80 mg/kg,22.0%
